Measured values: patent publication US20060062850A1, “Controlled release antimicrobial polymer compositions” (priority 2004, published 2006)

Key:
L. monocytogenes 15313 [1] = assay: spot on lawn assay; assay type: cell-based
Method: For each concentration of each antimicrobial agent, a spot on lawn assay was conducted as a positive control experiment to assess the efficacy of the antimicrobial solutions. In this assay, Trypticase Soy Agar (TSA) and Modified Oxford Agar (MOX) agar plates were inoculated with L. monocytogenes 15313 at a level of 10E+08 cfu/ml through an Autoplate 4000 model from Spiral Biotech, Inc., of Norwood, Mass. A volumetric pipette pump was then used to place three 10 μl spots of antimicrobial solution onto three well-separated regions of the test plate. Another volumetric pipette pump was used to place 10 μl of a negative control solution (i.e., neat solvent(s)) onto another well-separated region. Three such agar plates were prepared for each concentration of antimicrobial solution. After spot placement, the agar plates were allowed to stand undisturbed for 10 to 30 minutes in a laminar flow hood before incubation at 37° C. for at least 24 hours.
The zone of inhibition resulting from each spot of antimicrobial solution was measured using a dial caliper (available from Brown and Sharpe of North Kingstown, R.I.; accuracy to 0.02 mm). Each zone of inhibition was measured twice, once on each of two perpendicular axes. The values reported in Tables 2 (TSA plates) and 3 (MOX plates) are the average of 18 measurements.

L. monocytogenes 15313 [2] = assay: film on lawn assay; assay type: cell-based; details: incubation at 37 C.
Method: In a film on lawn assay, films of Example 1 and Example 2 were cut into 15 mm by 15 mm samples, placed onto aluminum foil, and exposed to UV light in a laminar flow hood for 4 to 7 minutes. The samples were then transferred from the foil to one of six freshly made up antimicrobial solutions to imbibe for 12 to 24 hours at a specified temperature (4° C. or 37° C.). The films are expected to substantially reach equilibration in less than 12 hours. The films were removed with a pair of flame-sterilized ocular forceps, allowed to drip dry, and held for 60 seconds on a sterile Petri dish before positioning on TSA and MOX agar plates. The agar plates had been prepared as described above with respect to the spot on lawn assay. Two films were placed on each of the prepared agar plates, in well-separated regions. A third 15 mm×15 mm film was imbibed under the same conditions in a negative control solution and placed in another region of the plate. Three plates were prepared in this manner for each concentration of each antimicrobial agent. In the case of the MOX agar plates, a fourth plate was prepared with the same level of innoculum, with no films in it, to serve as a growth indicator plate for color change. After film placement, the plates were allowed to stand undisturbed for 10 to 30 minutes in a laminar flow hood before incubation for at least 24 hours.
Incubation took place at either 4° C. for 14 to 28 days or 37° C. for two to five days. The incubation conditions are noted in the Tables.
The zone of inhibition resulting from each spot of antimicrobial solution was measured as described above, with respect to the spot on lawn assay. The values reported in Tables 5 and 6 are the average of 12 measurements. Occasionally inhibition could be observed on the MOX agar plates, but not easily measured, owing to the relatively diffuse boundaries between areas of inhibition and non-inhibition. In such cases, a qualitative description of the results is provided.

For O=C(O)c1ccccc1 [Benzoic acid], the “Group averages of Inhibition Zones, Spot on Lawn Assay” value (L. monocytogenes 15313 [1]; MOX Agar Plates, 0.75 wt % in Ethanol/Water (36/63.25)) was 7.91 mm, the “Group averages of Inhibition Zones, Spot on Lawn Assay” value (L. monocytogenes 15313 [1]; MOX Agar Plates, 1.5 wt % in Ethanol/Water (36/62.5)) was 8.66 mm and the “Group averages of Inhibition Zones, Spot on Lawn Assay” value (L. monocytogenes 15313 [1]; MOX Agar Plates, 3.0 wt % in Ethanol/Water (36/61)) was 8.75 mm. The “Group averages of Inhibition Zones, Spot on Lawn Assay” value (L. monocytogenes 15313 [1]; TSA Agar, 0.75 wt % in Ethanol/Water (36/63.25)) was 8.13 ± 0.27 mm, the “Group averages of Inhibition Zones, Spot on Lawn Assay” value (L. monocytogenes 15313 [1]; TSA Agar, 1.5 wt % in Ethanol/Water (36/62.5)) was 8.32 ± 0.69 mm and the “Group averages of Inhibition Zones, Spot on Lawn Assay” value (L. monocytogenes 15313 [1]; TSA Agar, 3.0 wt % in Ethanol/Water (36/61)) was 8.32 ± 0.53 mm. For the same molecule, the “Group averages of Inhibition Zones, Film on Lawn Assay Example 1” value (L. monocytogenes 15313 [2]; MOX Agar Plates, Example 1 film soaked at 37 C. in 0.75 wt % solution, Ethanol/Water (36/63.25)) was 0 (no inhibition) mm, the “Group averages of Inhibition Zones, Film on Lawn Assay Example 1” value (L. monocytogenes 15313 [2]; MOX Agar Plates, Example 1 film soaked at 37 C. in 1.5 wt % solution, Ethanol/Water (36/62.5)) was 24.0 ± 3.34 mm and the “Group averages of Inhibition Zones, Film on Lawn Assay Example 1” value (L. monocytogenes 15313 [2]; MOX Agar Plates, Example 1 film soaked at 37 C. in 3.0 wt % solution, Ethanol/Water (36/61)) was 39.52 ± 2.93 mm. The “Group averages of Inhibition Zones, Film on Lawn Assay Example 2” value (L. monocytogenes 15313 [2]; MOX Agar Plates, Example 2 film soaked at 37 C. in 0.75 wt % solution, Ethanol/Water (36/63.25)) was 0 (no inhibition) mm, the “Group averages of Inhibition Zones, Film on Lawn Assay Example 2” value (L. monocytogenes 15313 [2]; MOX Agar Plates, Example 2 film soaked at 37 C. in 1.5 wt % solution, Ethanol/Water (36/62.5)) was 21.38 ± 3.90 mm and the “Group averages of Inhibition Zones, Film on Lawn Assay Example 2” value (L. monocytogenes 15313 [2]; MOX Agar Plates, Example 2 film soaked at 37 C. in 3.0 wt % solution, Ethanol/Water (36/61)) was 32.29 ± 7.53 mm. The “Group averages of Inhibition Zones, Film on Lawn Assay Example 1” value (L. monocytogenes 15313 [2]; TSA Agar, Example 1 film soaked at 37 C. in 0.75 wt % solution, Ethanol/Water (36/63.25)) was 0 (no inhibition) mm, the “Group averages of Inhibition Zones, Film on Lawn Assay Example 1” value (L. monocytogenes 15313 [2]; TSA Agar, Example 1 film soaked at 37 C. in 1.5 wt % solution, Ethanol/Water (36/62.5)) was 17.68 ± 1.64 mm and the “Group averages of Inhibition Zones, Film on Lawn Assay Example 1” value (L. monocytogenes 15313 [2]; TSA Agar, Example 1 film soaked at 37 C. in 3.0 wt % solution, Ethanol/Water (36/61)) was 20.17 ± 1.19 mm. The “Group averages of Inhibition Zones, Film on Lawn Assay Example 2” value (L. monocytogenes 15313 [2]; TSA Agar, Example 2 film soaked at 37 C. in 0.75 wt % solution, Ethanol/Water (36/63.25)) was 0 (no inhibition) mm, the “Group averages of Inhibition Zones, Film on Lawn Assay Example 2” value (L. monocytogenes 15313 [2]; TSA Agar, Example 2 film soaked at 37 C. in 1.5 wt % solution, Ethanol/Water (36/62.5)) was 18.60 ± 0.61 mm and the “Group averages of Inhibition Zones, Film on Lawn Assay Example 2” value (L. monocytogenes 15313 [2]; TSA Agar, Example 2 film soaked at 37 C. in 3.0 wt % solution, Ethanol/Water (36/61)) was 18.90 ± 1.82 mm.
